# In US20100041892A1, “Therapeutic agent for diabetes” (priority 2005, published 2010):
# Read-outs that look alike come from different tables or passages of the source.
# Key:
# [1] = tested on: KKAy mice; assay: Blood glucose and blood lipid (triglyceride) lowering action in mice; format: in vivo; settings: Mus musculus, 4TO7, po, 4 to 7 days; for response vs control in vivo at 0.03 %: 0.03% in powder diet; for response vs control in vivo at 0.005 %: 0.005% in powder diet; for response vs control in vivo at 0.01 %: 0.01% in powder diet
# Description: The test compound was mixed with a powder diet (CE-2, CLEA JAPAN, INC.) at a proportion of 0.01% (0.03% for the compounds of Examples 1, 2, 12, 81, 94, 96, 129 and 143, and 0.005% for the compounds of Examples 28, 30 and 37) and freely given to KKAy mice (9 to 14-week-old, 5 mice per group) which are obesity non-insulin-dependent diabetes (type-2 diabetes) models, for 4 to 7 days. During this period, water was freely given. The blood was drawn from the orbital venous plexus. Glucose and triglyceride in the plasma separated from the blood were quantitated using L Type Wako Glu2 (Wako Pure Chemical Industries, Ltd.) and L Type Wako TG·H (Wako Pure Chemical Industries, Ltd.), respectively, according to an enzyme method.
# [2] = target: T1, PPARγ-RXRα heterodimer (Homo sapiens, UniProt P37231); assay: PPARγ-RXRα heterodimer ligand activity (luciferase reporter, PPARγ:RXRα:4ERPP/CHO-K1 cells); format: cell-based; settings: concentration showing 50% of the maximum luciferase induction rate; CHO-K1 reporter cells, one day incubation
# T1 construct: expressed in transfected cells; host or cells: CHO-K1 (PPARγ:RXRα:4ERPP/CHO-K1)
# T1 sequence (P37231 1-477 isoform P37231-2): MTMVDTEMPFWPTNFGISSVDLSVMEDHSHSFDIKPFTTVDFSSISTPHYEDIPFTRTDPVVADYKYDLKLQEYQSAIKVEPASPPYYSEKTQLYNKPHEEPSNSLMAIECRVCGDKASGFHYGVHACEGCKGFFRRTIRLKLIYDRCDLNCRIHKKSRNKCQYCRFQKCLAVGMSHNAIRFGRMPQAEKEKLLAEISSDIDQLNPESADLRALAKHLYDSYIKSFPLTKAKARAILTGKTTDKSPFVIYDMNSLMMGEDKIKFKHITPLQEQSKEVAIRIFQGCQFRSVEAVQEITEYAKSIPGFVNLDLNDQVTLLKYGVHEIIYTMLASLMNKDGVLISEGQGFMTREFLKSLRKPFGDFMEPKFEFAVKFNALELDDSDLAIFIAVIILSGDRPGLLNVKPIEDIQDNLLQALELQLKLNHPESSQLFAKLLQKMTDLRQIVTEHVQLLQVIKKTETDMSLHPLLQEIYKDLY
# T1 sequence (P19793 1-462 partner): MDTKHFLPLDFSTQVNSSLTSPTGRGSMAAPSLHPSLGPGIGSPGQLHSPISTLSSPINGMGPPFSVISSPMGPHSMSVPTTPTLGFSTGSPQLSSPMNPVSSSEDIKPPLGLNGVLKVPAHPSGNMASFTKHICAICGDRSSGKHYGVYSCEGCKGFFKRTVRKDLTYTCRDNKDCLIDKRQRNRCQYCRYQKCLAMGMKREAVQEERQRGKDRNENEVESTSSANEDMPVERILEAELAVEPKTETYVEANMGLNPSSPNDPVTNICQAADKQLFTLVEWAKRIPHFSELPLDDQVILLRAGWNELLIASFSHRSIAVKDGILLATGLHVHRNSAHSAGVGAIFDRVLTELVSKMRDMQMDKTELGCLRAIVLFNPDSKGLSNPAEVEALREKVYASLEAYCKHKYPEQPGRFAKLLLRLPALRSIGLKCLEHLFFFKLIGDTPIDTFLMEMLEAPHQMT
# Method: The PPARγ:RXRα:4ERPP/CHO-K1 cells described in WO03/099793 were cultured in a Ham F12 medium [manufactured by Life Technologies, Inc., US] containing 10% calf fetal serum [manufactured by Life Technologies, Inc., US], sown in a 96-well white plate (manufactured by Corning Coster Corporation, US] at 1×10^4 cells/well, and incubated overnight in a carbon dioxide gas incubator at 37° C.
# Then, the medium was removed from the 96 well white plate, 45 μl of Ham F12-medium containing 0.1% fatty acid-free bovine serum albumin (BSA) and a test compound (5 μl) were added, and the cells were incubated for one day in a carbon dioxide gas incubator at 37° C. The medium was removed, 20 μl of PicaGene 7.5 (manufactured by Wako Pure Chemical Industries, Ltd.) 2-fold diluted with HBSS (HANKS' BALANCED SALT SOLUTION) [manufactured by BIO WHITTAKER, US] was added. After stirring, the luciferase activity was determined using the 1420 ARVO Multilabel Counter [manufactured by PerkinElmer, US].
# The induction rate was calculated from the luciferase activity of each test compound based on the luciferase activity of the test compound non-administration group as 1. The test compound concentration and the induction rate were analyzed by PRISM [manufactured by GraphPad Software, Inc., US] to calculate EC50 value (compound concentration showing 50% of the maximum value of induction rate) of the test compound.
# [3] = plasma glucose relative to non-administration group = 100%, read-out: hypoglycemic action (%)
# [4] = plasma triglyceride relative to non-administration group = 100%, read-out: hypolipidemic action (%)
SMILES,EC50 [2] [nM],melting point [°C],"response vs control in vivo at 0.03 % [1, 3] [%]","response vs control in vivo at 0.03 % [1, 4] [%]",further results
"CCCCCS(=O)(=O)NC(=O)CCc1ccc(OCCOC)cc1Oc1ncc(C(F)(F)F)cc1Cl [Example 1, 3-[2-{[3-chloro-5-(trifluoromethyl)pyridin-2-yl]oxy}-4-(2-methoxyethoxy)phenyl]-N-(pentylsulfonyl)propanamide]",1.5,–,47,53,–
"CCCCCS(=O)(=O)NC(=O)CCc1ccc(OC(C)C)cc1Oc1ncc(C(F)(F)F)cc1Cl [Example 2, 3-(2-{[3-chloro-5-(trifluoromethyl)pyridin-2-yl]oxy}-4-isopropoxyphenyl)-N-(pentylsulfonyl)propanamide]",2.6,–,50,41,–
"CCCCCS(=O)(=O)NC(=O)/C=C/c1ccc(OCCOC)cc1Oc1ncc(C(F)(F)F)cc1Cl [Example 12, (2E)-3-[2-{[3-chloro-5-(trifluoromethyl)pyridin-2-yl]oxy}-4-(2-methoxyethoxy)phenyl]-N-(pentylsulfonyl)acrylamide]",15,–,46,43,–
"COCCOc1ccc(CCCOC(=O)NS(=O)(=O)c2ccc(C)cc2)c(Oc2ncc(C(F)(F)F)cc2Cl)c1 [Example 30, 3-[2-{[3-chloro-5-(trifluoromethyl)pyridin-2-yl]oxy}-4-(2-methoxyethoxy)phenyl]propyl [(4-methylphenyl)sulfonyl]carbamate monohydrate]",3.8,–,–,–,"response vs control in vivo at 0.005 % [1, 3]: 47%; response vs control in vivo at 0.005 % [1, 4]: 57%"
"COCCOc1ccc(/C=C/COC(=O)NS(=O)(=O)c2ccc(Cl)cc2)c(Oc2ncc(C(F)(F)F)cc2Cl)c1 [Example 37, (2E)-3-[2-{[3-chloro-5-(trifluoromethyl)pyridin-2-yl]oxy}-4-(2-methoxyethoxy)phenyl]-2-propen-1-yl [(4-chlorophenyl)sulfonyl]carbamate dihydrate]",21,–,–,–,"response vs control in vivo at 0.005 % [1, 3]: 68%; response vs control in vivo at 0.005 % [1, 4]: 70%"
"CCCCCS(=O)(=O)NC(=O)/C=C/c1ccc(OCCC(C)(C)O)cc1Oc1ncc(C(F)(F)F)cc1Cl [Example 248, (2E)-3-[2-{[3-chloro-5-(trifluoromethyl)pyridin-2-yl]oxy}-4-(3-hydroxy-3-methylbutoxy)phenyl]-N-(pentylsulfonyl)acrylamide]",18,135.5 to 136,–,–,–
"CCCCCS(=O)(=O)NC(=O)CCc1ccc(OCCCOC)cc1Oc1ncc(C(F)(F)F)cc1Cl [Example 258, 3-[2-{[3-chloro-5-(trifluoromethyl)pyridin-2-yl]oxy}-4-(3-methoxypropoxy)phenyl]-N-(pentylsulfonyl)propanamide]",1.1,115 to 115.2,–,–,–

# The remaining molecules from weak to strong by EC50 [2], led by results:
EC50 [2] [nM],melting point [°C],SMILES,"response vs control in vivo at 0.03 % [1, 3] [%]","response vs control in vivo at 0.03 % [1, 4] [%]",further results
20,–,"CCCCCS(=O)(=O)NC(=O)/C=C/c1cc(OC(C)C)nn1Cc1ccc(Cl)cc1Cl [Example 94, (2E)-3-[1-(2,4-dichlorobenzyl)-3-isopropoxy-1H-pyrazol-5-yl]-N-(pentylsulfonyl)acrylamide]",48,79,–
16,–,"CCCCCS(=O)(=O)NC(=O)CCc1cc(OC(C)C)nn1Cc1ccc(Cl)cc1Cl [Example 81, 3-[1-(2,4-dichlorobenzyl)-3-isopropoxy-1H-pyrazol-5-yl]-N-(pentylsulfonyl)propanamide]",44,60,–
13,81 to 83,"CCCCCS(=O)(=O)NC(=O)/C=C/c1ccc(OCCOCCOC)cc1Oc1ncc(C(F)(F)F)cc1Cl [Example 256, (2E)-3-{2-{[3-chloro-5-(trifluoromethyl)pyridin-2-yl]oxy}-4-[2-(2-methoxyethoxy)ethoxy]phenyl}-N-(pentylsulfonyl)acrylamide]",–,–,–
10,–,"CCCCCS(=O)(=O)NC(=O)OCc1ccc(OCCOC)cc1Oc1ncc(C(F)(F)F)cc1Cl [Example 58, 2-{[3-chloro-5-(trifluoromethyl)pyridin-2-yl]oxy}-4-(2-methoxyethoxy)benzyl (pentylsulfonyl)carbamate]",–,–,"response vs control in vivo at 0.01 % [1, 3]: 64%; response vs control in vivo at 0.01 % [1, 4]: 73%"
8.5,152.5 to 153,"CCCCCNS(=O)(=O)NC(=O)/C(C)=C/c1ccc(OCCOC)cc1Oc1ncc(C(F)(F)F)cc1Cl [Example 226, (2E)-3-[2-{[3-chloro-5-(trifluoromethyl)pyridin-2-yl]oxy}-4-(2-methoxyethoxy)phenyl]-2-methyl-N-[(pentylamino)sulfonyl]acrylamide]",–,–,–
8.4,–,"CCCCCS(=O)(=O)NC(=O)CCc1cc(C(C)C)nn1Cc1ccc(C(F)(F)F)cc1Cl [Example 96, 3-(1-[2-chloro-4-(trifluoromethyl)benzyl]-3-isopropyl-1H-pyrazol-5-yl)-N-(pentylsulfonyl)propanamide]",53,57,–
7.3,90 to 92,"CCCCCS(=O)(=O)NC(=O)/C=C/c1ccc(OCCC2(C)OCCO2)cc1Oc1ncc(C(F)(F)F)cc1Cl [Example 453, (2E)-3-{2-{[3-chloro-5-(trifluoromethyl)pyridin-2-yl]oxy}-4-[2-(2-methyl-1,3-dioxolan-2-yl)ethoxy]phenyl}-N-(pentylsulfonyl)acrylamide]",–,–,–
4.5,–,"CCCCCS(=O)(=O)NC(=O)OCCCc1ccc(OCCOC)cc1Oc1ncc(C(F)(F)F)cc1Cl [Example 28, 3-[2-{[3-chloro-5-(trifluoromethyl)pyridin-2-yl]oxy}-4-(2-methoxyethoxy)phenyl]propyl (pentylsulfonyl)carbamate]",–,–,"response vs control in vivo at 0.005 % [1, 3]: 52%; response vs control in vivo at 0.005 % [1, 4]: 32%"
3.9,95 to 95.8,"CCCCCS(=O)(=O)NC(=O)CCc1ccc(OCCCOCCOC)cc1Oc1ncc(C(F)(F)F)cc1Cl [Example 255, 3-{2-{[3-chloro-5-(trifluoromethyl)pyridin-2-yl]oxy}-4-[3-(2-methoxyethoxy)propoxy]phenyl}-N-(pentylsulfonyl)propanamide]",–,–,–
2.1,76 to 77.5,"CCCCCS(=O)(=O)NC(=O)CCc1ccc(OCCOCCOC)cc1Oc1ncc(C(F)(F)F)cc1Cl [Example 257, 3-{2-{[3-chloro-5-(trifluoromethyl)pyridin-2-yl]oxy}-4-[2-(2-methoxyethoxy)ethoxy]phenyl}-N-(pentylsulfonyl)propanamide]",–,–,–
